Assay results: PMC9254721, “Global update on the susceptibilities of human influenza viruses to neuraminidase inhibitors and the cap-dependent endonuclease inhibitor baloxavir, 2018–2020” (Antiviral research, 2022)
“And” between values parts separate entries of the source, which are not always exact repeats. Equal values may be shown once.

Legend:
[1] = test system: A(H1N1)pdm09 virus neuraminidase (NA); assay type: biochemical, influenza A(H1N1)pdm09 virus
[2] = test system: A(H3N2) virus neuraminidase (NA); assay type: biochemical, influenza A(H3N2) virus
[3] = test system: B/Victoria-lineage virus neuraminidase (NA); assay type: biochemical, influenza B/Victoria-lineage virus
A(H1N1)pdm09 viruses = assay type: cell-based, influenza A(H1N1)pdm09 virus
A(H3N2) viruses = assay type: cell-based, influenza A(H3N2) virus
[4] = test system: B/Victoria-lineage viruses; assay type: cell-based, influenza B/Victoria-lineage virus
influenza viruses [5] = assay type: cell-based, influenza virus
[6] = test system: recombinant A(H1N1) virus; settings: PA-A37S in a recombinant A(H1N1) virus; ref Hashimoto et al., 2021; cited from earlier work
influenza viruses [7] = settings: PA-I38V, PA-E199G alone, when present in other subtypes; ref PA marker table; cited from earlier work

[H]/N=C(\N)N[C@H]1C=C(C(=O)O)O[C@@H]([C@H](OC)[C@H](O)CO)[C@@H]1NC(C)=O [Laninamivir, laninamivir]
inhibition phenotype (NI/RI/HRI) [1]: RI (key: normal inhibition (NI) is a <10-fold increase in the NAI IC50; RI is a 10- to 100-fold increase; HRI is a >100-fold increase)

CCOC(=O)C1=C[C@@H](OC(CC)CC)[C@H](NC(C)=O)[C@@H](N)C1 [Oseltamivir, oseltamivir]
inhibition phenotype (NI/RI/HRI) [2]: RI (key: normal inhibition (NI) is a <10-fold increase in the NAI IC50; RI is a 10- to 100-fold increase; HRI is a >100-fold increase) | inhibition phenotype (NI/RI/HRI) [3]: RI/HRI

CCC(CC)[C@H](NC(C)=O)[C@@H]1[C@H](O)[C@@H](C(=O)O)C[C@H]1N=C(N)N [Peramivir, peramivir]
IC50 fold-change as compared to reference median IC50 values [2]: 2 fold and 1.5 fold and 1 fold | IC50 fold-change compared to reference median IC50 values [2]: 2 (1) fold and 1.5 fold and 1 fold

CC(=O)N[C@H]1[C@H]([C@H](O)[C@H](O)CO)OC(C(=O)O)=C[C@@H]1N=C(N)N [Zanamivir, zanamivir]
inhibition phenotype (NI/RI/HRI) [2]: RI (key: normal inhibition (NI) is a <10-fold increase in the NAI IC50; RI is a 10- to 100-fold increase; HRI is a >100-fold increase)

COC(=O)OCOc1c2n(ccc1=O)N([C@@H]1c3ccccc3SCc3c1ccc(F)c3F)[C@@H]1COCCN1C2=O [baloxavir, baloxavir marboxil]
Fold-change in susceptibility to baloxavir compared to PA sequence-matched control virus (A(H1N1)pdm09 viruses): 4.7 [4.1] fold and 2.90 [3.7] fold | fold increase in EC50 compared to a PA sequence matched control (A(H1N1)pdm09 viruses): 4.1 fold | fold increase in EC50 compared to the respective PA sequence-matched controls (A(H3N2) viruses): < 3 fold | EC50 fold-change as compared to reference median EC50 [4]: 0.88 [1.5] fold and 0.6 fold | Fold-change in susceptibility to baloxavir compared to PA sequence-matched control virus [4]: 0.88 [1.5] fold | change in baloxavir susceptibility (influenza viruses [5]): no change | fold increase in EC50 as compared to the respective median EC50s (influenza viruses [5]): < 3 fold | effect of substitution on baloxavir susceptibility [6]: did not alter baloxavir susceptibility | effect of substitutions on in vitro baloxavir susceptibility (influenza viruses [7]): little or no effect
